A short description of this data set: activity coefficient (dimensionless); of the first substance listed, at infinite dilution; xn = mol fraction of the nth substance listed. Particulars: 101.33 kPa, Liquid, Chromatography, x1 = 0.

The structures appear in SMILES notation. Numbers after ± are expanded uncertainties.

Data on 23 compounds can be found in the NIST ThermoML archive (doi:10.1016/j.jct.2016.07.017).

Consider `CCCCCCC` [heptane] + CC[N+](C)(CC)CCOC.O=S(=O)([N-]S(=O)(=O)C(F)(F)F)C(F)(F)F, for which the activity coefficient reads like this: (318.15 K) 26.4 ± 2.3; (328.15 K) 24.4 ± 2.1; (338.15 K) 22.3 ± 1.9; (348.15 K) 21 ± 1.8; (358.15 K) 19.3 ± 1.7.

For `C#CCCCCCC` [1-octyne] + CC[N+](C)(CC)CCOC.O=S(=O)([N-]S(=O)(=O)C(F)(F)F)C(F)(F)F, the activity coefficient is 6.47 ± 0.56 (318.15 K); 6.36 ± 0.55 (328.15 K); 6.21 ± 0.54 (338.15 K); 6.11 ± 0.53 (348.15 K); 5.97 ± 0.52 (358.15 K).

For `Cc1ccccc1` [toluene] + CC[N+](C)(CC)CCOC.O=S(=O)([N-]S(=O)(=O)C(F)(F)F)C(F)(F)F, the activity coefficient amounted to 1.47 ± 0.12 (318.15 K); 1.48 ± 0.13 (328.15 K); 1.5 ± 0.13 (338.15 K); 1.52 ± 0.13 (348.15 K); 1.53 ± 0.13 (358.15 K).

With `Cc1cccc(C)c1` [1,3-dimethylbenzene] + CC[N+](C)(CC)CCOC.O=S(=O)([N-]S(=O)(=O)C(F)(F)F)C(F)(F)F, the activity coefficient was 2.12 ± 0.18 (318.15 K); 2.14 ± 0.18 (328.15 K); 2.14 ± 0.18 (338.15 K); 2.17 ± 0.19 (348.15 K); 2.18 ± 0.19 (358.15 K).

Take `C=CCCCCCCCC` [1-decene] + CC[N+](C)(CC)CCOC.O=S(=O)([N-]S(=O)(=O)C(F)(F)F)C(F)(F)F: the activity coefficient amounted to 40.4 ± 3.5 (318.15 K); 37.4 ± 3.2 (328.15 K); 34.4 ± 3 (338.15 K); 32.2 ± 2.8 (348.15 K); 29.8 ± 2.6 (358.15 K).

Regarding `CC(C)O` [propan-2-ol] + CC[N+](C)(CC)CCOC.O=S(=O)([N-]S(=O)(=O)C(F)(F)F)C(F)(F)F, the activity coefficient is, setting by setting: (318.15 K) 2.04 ± 0.18; (328.15 K) 1.84 ± 0.16; (338.15 K) 1.7 ± 0.14; (348.15 K) 1.56 ± 0.13; (358.15 K) 1.44 ± 0.12.

For the compound `CCC(=O)CC` [pentan-3-one] + CC[N+](C)(CC)CCOC.O=S(=O)([N-]S(=O)(=O)C(F)(F)F)C(F)(F)F, the activity coefficient was 0.852 ± 0.071 (318.15 K); 0.873 ± 0.072 (328.15 K); 0.889 ± 0.074 (338.15 K); 0.906 ± 0.075 (348.15 K); 0.916 ± 0.076 (358.15 K).

Regarding `CCO` [ethanol] + CC[N+](C)(CC)CCOC.O=S(=O)([N-]S(=O)(=O)C(F)(F)F)C(F)(F)F, the activity coefficient reads like this: (318.15 K) 1.77 ± 0.15; (328.15 K) 1.62 ± 0.14; (338.15 K) 1.5 ± 0.13; (348.15 K) 1.38 ± 0.12; (358.15 K) 1.28 ± 0.11.

Take `C1CCCCCC1` [cycloheptane] + CC[N+](C)(CC)CCOC.O=S(=O)([N-]S(=O)(=O)C(F)(F)F)C(F)(F)F: the activity coefficient runs as follows: (318.15 K) 14.9 ± 1.3; (328.15 K) 13.7 ± 1.2; (338.15 K) 12.7 ± 1.1; (348.15 K) 11.8 ± 1; (358.15 K) 11 ± 1.

Regarding `C1CCCCCCC1` [cyclooctane] + CC[N+](C)(CC)CCOC.O=S(=O)([N-]S(=O)(=O)C(F)(F)F)C(F)(F)F, the activity coefficient (318.15 K) was 20.4 ± 1.8; the activity coefficient (328.15 K) is 18.6 ± 1.6; the activity coefficient (338.15 K) worked out at 17 ± 1.5; the activity coefficient (348.15 K) was determined as 15.7 ± 1.4; the activity coefficient (358.15 K) was found to be 14.5 ± 1.3.

Turning to `CCCC(C)=O` [pentan-2-one] + CC[N+](C)(CC)CCOC.O=S(=O)([N-]S(=O)(=O)C(F)(F)F)C(F)(F)F, the activity coefficient was found to be 0.853 ± 0.071 (318.15 K); 0.862 ± 0.072 (328.15 K); 0.87 ± 0.072 (338.15 K); 0.884 ± 0.073 (348.15 K); 0.896 ± 0.074 (358.15 K).

Regarding `c1ccncc1` [pyridine] + CC[N+](C)(CC)CCOC.O=S(=O)([N-]S(=O)(=O)C(F)(F)F)C(F)(F)F, the activity coefficient (318.15 K) came to 0.6 ± 0.053; the activity coefficient (328.15 K) is 0.604 ± 0.053; the activity coefficient (338.15 K) is 0.607 ± 0.053; the activity coefficient (348.15 K) came out at 0.615 ± 0.054; the activity coefficient (358.15 K) turned out to be 0.619 ± 0.054.

For `CCC(C)(C)OC` [2-methoxy-2-methylbutane] + CC[N+](C)(CC)CCOC.O=S(=O)([N-]S(=O)(=O)C(F)(F)F)C(F)(F)F, the activity coefficient is, setting by setting: (318.15 K) 3.87 ± 0.33; (328.15 K) 3.86 ± 0.33; (338.15 K) 3.83 ± 0.33; (348.15 K) 3.8 ± 0.33; (358.15 K) 3.76 ± 0.32.

Take `Cc1ccc(C)cc1` [1,4-dimethylbenzene] + CC[N+](C)(CC)CCOC.O=S(=O)([N-]S(=O)(=O)C(F)(F)F)C(F)(F)F: the activity coefficient by setting is: (318.15 K) 2.12 ± 0.18; (328.15 K) 2.15 ± 0.19; (338.15 K) 2.15 ± 0.19; (348.15 K) 2.17 ± 0.19; (358.15 K) 2.18 ± 0.19.

Regarding `C#CCCCC` [1-hexyne] + CC[N+](C)(CC)CCOC.O=S(=O)([N-]S(=O)(=O)C(F)(F)F)C(F)(F)F, the activity coefficient reads like this: (318.15 K) 3.11 ± 0.27; (328.15 K) 3.11 ± 0.27; (338.15 K) 3.1 ± 0.27; (348.15 K) 3.1 ± 0.27; (358.15 K) 3.08 ± 0.27.

`CC#N` [acetonitrile] + CC[N+](C)(CC)CCOC.O=S(=O)([N-]S(=O)(=O)C(F)(F)F)C(F)(F)F: the activity coefficient runs as follows: (318.15 K) 0.488 ± 0.045; (328.15 K) 0.488 ± 0.045; (338.15 K) 0.488 ± 0.045; (348.15 K) 0.49 ± 0.045; (358.15 K) 0.49 ± 0.045.

As for `CC(C)OC(C)C` [diisopropyl ether] + CC[N+](C)(CC)CCOC.O=S(=O)([N-]S(=O)(=O)C(F)(F)F)C(F)(F)F, the activity coefficient by setting is: (318.15 K) 6.4 ± 0.55; (328.15 K) 6.28 ± 0.54; (338.15 K) 6.16 ± 0.53; (348.15 K) 6.03 ± 0.52; (358.15 K) 5.88 ± 0.51.

For the compound `C1COCCO1` [1,4-dioxane] + CC[N+](C)(CC)CCOC.O=S(=O)([N-]S(=O)(=O)C(F)(F)F)C(F)(F)F, the activity coefficient by setting is: (318.15 K) 0.66 ± 0.057; (328.15 K) 0.679 ± 0.058; (338.15 K) 0.704 ± 0.06; (348.15 K) 0.723 ± 0.061; (358.15 K) 0.734 ± 0.062.

In the case of `C1CCCCC1` [cyclohexane] + CC[N+](C)(CC)CCOC.O=S(=O)([N-]S(=O)(=O)C(F)(F)F)C(F)(F)F, the activity coefficient reads like this: (318.15 K) 10.8 ± 0.9; (328.15 K) 10 ± 0.9; (338.15 K) 9.39 ± 0.81; (348.15 K) 8.74 ± 0.75; (358.15 K) 8.3 ± 0.72.

`C=CCCCCC` [1-heptene] + CC[N+](C)(CC)CCOC.O=S(=O)([N-]S(=O)(=O)C(F)(F)F)C(F)(F)F: the activity coefficient by setting is: (318.15 K) 13.3 ± 1.2; (328.15 K) 12.6 ± 1.1; (338.15 K) 11.9 ± 1; (348.15 K) 11.4 ± 1; (358.15 K) 10.9 ± 0.9.

In the case of `CCCOCCC` [dipropyl ether] + CC[N+](C)(CC)CCOC.O=S(=O)([N-]S(=O)(=O)C(F)(F)F)C(F)(F)F, the activity coefficient was 6.84 ± 0.59 (318.15 K); 6.58 ± 0.57 (328.15 K); 6.41 ± 0.55 (338.15 K); 6.25 ± 0.54 (348.15 K); 6.07 ± 0.52 (358.15 K).

In the case of `CCC(C)(C)C` [2,2-dimethylbutane] + CC[N+](C)(CC)CCOC.O=S(=O)([N-]S(=O)(=O)C(F)(F)F)C(F)(F)F, the activity coefficient came to 15.1 ± 1.3 (318.15 K); 14 ± 1.2 (328.15 K); 13.3 ± 1.2 (338.15 K); 12.5 ± 1.1 (348.15 K); 11.9 ± 1 (358.15 K).

In the case of `C=CCCCCCC` [oct-1-ene] + CC[N+](C)(CC)CCOC.O=S(=O)([N-]S(=O)(=O)C(F)(F)F)C(F)(F)F, the activity coefficient by setting is: (318.15 K) 19.6 ± 1.7; (328.15 K) 18.3 ± 1.6; (338.15 K) 17.1 ± 1.5; (348.15 K) 16.2 ± 1.4; (358.15 K) 15.2 ± 1.3.
